# Assay results published in patent US20170340693A1, “DISLODGEMENT AND RELEASE OF HSC USING ALPHA 9 INTEGRIN ANTAGONIST AND CXCR4 ANTAGONIST” (COMMONWEALTH SCIENTIFIC AND INDUSTRIAL RESEARCH ORGANISATION, priority 2014, published 2017).
# Counter-ions that a name gives are not always drawn.
# B1: G-CSF: recombinant granulocyte-colony stimulating factor (protein, UniProt P09919 31-207, looked up)
# Granulocyte …: TPLGPASSLPQSFLLKCLEQVRKIQGDGAALQEKLVSECATYKLCHPEELVLLGHSLGIPWAPLSSCPSQALQLAGCLSQLHSGLFLYQGLLQALEGISPELGPTLDTLQLDVADFATTIWQQMEELGMAPALQPTQGAMPAFASAFQRRAGGVLVASHLQSFLEVSYRVLRHLAQP
# How the values were obtained:
# α4β1 or α9β1 LN18 cells = settings: Pepinsky et al (2002); cited from earlier work
# [1] = test system: progenitors (LSK) and HSC (LSKSLAM) in peripheral blood; experiment: HSC mobilization to peripheral blood in mice; format: in vivo
# Description: (§1) For mobilization experiments, all mice received subcutaneous injections at 100 μl/10 gm body weight and PB was harvested by throat bleed using EDTA coated syringes.
# (a) R-BC154 (IXb) and BOP. Mice received a single injection of freshly prepared solutions of R-BC154 (IXb) and BOP in saline at the doses indicated before PB was harvested by throat bleed at the times indicated.
# (b) G-CSF. Mice received G-CSF at 250 μg/kg twice daily (500 ug/kg/day), 6-8 hours apart for 4 consecutive days. Groups receiving G-CSF and BOP received the standard G-CSF regime as described above followed by a single injection of BOP 1 h prior to harvest. Control mice received an equal volume of saline.
# (§2) Mice received subcutaneous injections at 100 μl/10 gm body weight of a single injection of BOP (up to 15 mg/kg) for various timeframes, a single BIO5192 injection at 1 mg/kg for 1 hour, a single AMD3100 injection at 3 mg/kg for 1 hour (mice also receiving BOP or BIO15192 were injected with a single dose of BOP or BIO15192 1 hour prior to harvest), or G-CSF at 250 μg/kg twice daily (500 μg/kg/day), 6-8 hours apart for 4 consecutive days (mice also receiving BOP and/or AMD3100 were injected with a single dose of BOP and/or AMD3100 1 h prior to harvest). Control mice received an equivalent volume of saline or 10% HPβCD/saline where appropriate.
# [2] = test system: cord blood (CB) mononuclear cells (MNC); experiment: R-BC154 (IXb) binding to cord blood mononuclear cell populations, flow cytometry; format: cell-based, human; settings: R-BC154 (100 nM) in the presence of excess selective α4β1 antagonist BIO5192 (1 μM) or dual α4β1/α9β1 antagonist BOP (1 μM)
# Description: For in vitro labelling experiments, 5×10^6 BM cells from C57 mice, conditional α4^−/−/α9^−/− mice and humanised NODSCIDIL2Rγ^−/− mice and human cord blood MNCs were treated with R-BC154 (IXb) (up to 300 nM) in PBS (0.5% BSA) or TBS (0.5% BSA) containing either 1 mM CaCl2/MgCl2 (activating) or 10 mM EDTA (deactivating) at 40×10^6 cells/ml for 20 mins at 4° C. Cells were washed with cold PBS (2% FBS) and then immunolabelled as described in “Antibody Cocktails” prior to flow cytometric analysis. For in vivo experiments, C57BL/6 mice, α4^−/−/α9^−/− vav-cre mice and humanised NODSCIDIL2Rγ^−/− mice received either intravenous or subcutaneous injections of R-BC154 (IXb) (5-10 mg/kg) at 100 ul/10 gm mouse weight and analysed as described above.
# (§3) For the assessment of α9β1 contribution to R-BC154 (IXb) binding, human and murine cells were stained with R-BC154 (100 nM) in the absence of competing antagonist or in the presence of excess amounts of the selective α4β1 antagonist BIO5192 (1 μM) or dual α4β1/α9β1 antagonist BOP (1 μM) in PBS containing 0.5% BSA and 1 mM CaCl2MgCl2 at 0° C. for 30 min. Cells were washed, immunolabelled as described above and analysed by flow cytometry. The contribution of α9β1 binding was calculated by measuring the difference in MFI between R-BC154 (IXb)+BIO5192 and +BOP and expressed as a % of R-BC154 (IXb) alone.
# WBC in peripheral blood = experiment: PB white blood cell / lymphocyte content after mobilization; format: in vivo, mice; settings: for WBC counts: peripheral blood after administration
# Description: as §1, §2
# α4β1 integrin = α4β1 integrin (Homo sapiens, UniProt P05556+P13612); experiment: Inhibition of integrin binding to VCAM-1 and Opn in vitro
# α9β1 integrin = α9β1 integrin (Homo sapiens, UniProt P05556+Q13797); experiment: as above
# endosteal LSK = experiment: In vivo BOP binding to endosteal versus central progenitors; parameters: species or system mice; settings: mouse
# Source text: Data is pooled from two independent experiments. n>6 (e) Analysis of in vivo BOP binding to endosteal versus central progenitors (LSK) and HSC (LSKSLAM) following the administration of BOP alone or BOP in combination with AMD3100. […] P<0.05
# [3] = test system: human WBC and human CD34+ stem and progenitors; experiment: Mobilization of humanised NSG (huNSG) mice; format: in vivo; settings: single dose, G-CSF multiple doses for 4-days
# Source text: Humanised NSG mice were generated by tail vein injection of freshly sorted cord blood CD34^+ cells (>150 k) with 2×10^6 irradiated mononuclear support cells. After 4-weeks post-transplantation, NSG mice were eyebled and assessed for huCD45 and muCD45. Under these conditions, >90% humanisation was achieved as determined by flow cytometric analysis based on % huCD45 relative to total % CD45. Humanised NSG mice were given at least 1 week to recover prior to experimentation. Mice were mobilized under the relevant conditions specified in “Mobilization protocols” and PB subsequently collected by throatbleed, lysed and immunolabelled as described in “Antibody cocktails”.
# as §2
# α9β1 = target: T1, α9β1 (Homo sapiens, UniProt P05556+Q13797); experiment: Inhibition of R-BC154 (IXb) binding, transduced LN18 cells and CHO cells, flow cytometry; parameters: species or system human and murine; settings: R-BC154 100 nM, antagonist 1 μM, 1 mM CaCl2MgCl2, 0° C. 30 min
# T1 construct: expressed in transfected cells; host or cells: LN18 (ATCC CRL-2610), retrovirally transduced; endogenous α4 silenced with pSM2c-shITGA4
# Description: as §3
# LPP-CFC and HPP-CFC = experiment: Low- and high-proliferative potential colony-forming cell assays of mobilized PB; parameters: species or system mice; settings: mouse, in vivo
# Description: Low- and high-proliferative potential colony-forming cells (LPP-CFC and HPP-CFC, respectively) were assayed as previously described in J. Grassinger et al Cytokine, 2012, 58, 218-225 and Bartelmez, S. H. et al Experimental hematology 17, 240-245 (1989). Briefly, mobilized PB were lysed and 4000 WBCs were plated in 35 mm Petri dishes in a double-layer nutrient agar culture system containing recombinant mouse stem cell factor and recombinant human colony-stimulating factor-1, interleukin-1α (IL-1α), and IL-3. Cultures were incubated at 37° C. in a humidified incubator at 5% O2, 10% CO2, 85% N2. LPP-CFC and HPP-CFC were enumerated at 14 days of incubation as previously described in J. Grassinger, et al (2012).
# α4β1 = α4β1 (Homo sapiens, UniProt P05556+P13612); settings: cited from earlier work
# α4β1, sequence (P13612 34-1032): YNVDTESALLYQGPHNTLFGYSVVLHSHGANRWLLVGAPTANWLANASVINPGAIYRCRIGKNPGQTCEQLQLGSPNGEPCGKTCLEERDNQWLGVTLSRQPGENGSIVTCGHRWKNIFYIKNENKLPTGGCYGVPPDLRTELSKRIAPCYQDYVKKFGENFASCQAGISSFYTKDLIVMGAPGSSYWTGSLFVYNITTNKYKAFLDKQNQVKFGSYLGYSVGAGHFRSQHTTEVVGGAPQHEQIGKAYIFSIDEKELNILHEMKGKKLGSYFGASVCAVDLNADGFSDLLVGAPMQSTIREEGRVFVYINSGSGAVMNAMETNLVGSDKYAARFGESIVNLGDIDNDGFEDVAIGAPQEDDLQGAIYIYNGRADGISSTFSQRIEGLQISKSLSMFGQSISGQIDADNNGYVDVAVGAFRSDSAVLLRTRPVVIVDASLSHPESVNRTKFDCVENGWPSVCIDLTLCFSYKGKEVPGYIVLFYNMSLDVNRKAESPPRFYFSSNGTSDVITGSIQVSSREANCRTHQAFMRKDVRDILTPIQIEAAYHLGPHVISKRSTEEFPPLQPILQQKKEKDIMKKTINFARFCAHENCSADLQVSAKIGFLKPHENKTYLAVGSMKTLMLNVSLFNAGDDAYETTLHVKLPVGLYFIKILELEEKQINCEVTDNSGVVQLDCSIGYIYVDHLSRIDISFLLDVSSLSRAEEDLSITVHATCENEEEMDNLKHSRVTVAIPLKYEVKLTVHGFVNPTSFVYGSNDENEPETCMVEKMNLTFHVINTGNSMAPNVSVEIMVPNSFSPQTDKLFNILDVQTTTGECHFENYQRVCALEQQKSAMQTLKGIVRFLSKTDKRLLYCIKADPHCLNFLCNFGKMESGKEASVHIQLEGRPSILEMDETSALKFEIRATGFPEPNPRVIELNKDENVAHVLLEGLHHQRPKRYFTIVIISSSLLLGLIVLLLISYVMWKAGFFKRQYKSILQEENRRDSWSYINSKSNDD
# α4β1, sequence (P05556 21-798): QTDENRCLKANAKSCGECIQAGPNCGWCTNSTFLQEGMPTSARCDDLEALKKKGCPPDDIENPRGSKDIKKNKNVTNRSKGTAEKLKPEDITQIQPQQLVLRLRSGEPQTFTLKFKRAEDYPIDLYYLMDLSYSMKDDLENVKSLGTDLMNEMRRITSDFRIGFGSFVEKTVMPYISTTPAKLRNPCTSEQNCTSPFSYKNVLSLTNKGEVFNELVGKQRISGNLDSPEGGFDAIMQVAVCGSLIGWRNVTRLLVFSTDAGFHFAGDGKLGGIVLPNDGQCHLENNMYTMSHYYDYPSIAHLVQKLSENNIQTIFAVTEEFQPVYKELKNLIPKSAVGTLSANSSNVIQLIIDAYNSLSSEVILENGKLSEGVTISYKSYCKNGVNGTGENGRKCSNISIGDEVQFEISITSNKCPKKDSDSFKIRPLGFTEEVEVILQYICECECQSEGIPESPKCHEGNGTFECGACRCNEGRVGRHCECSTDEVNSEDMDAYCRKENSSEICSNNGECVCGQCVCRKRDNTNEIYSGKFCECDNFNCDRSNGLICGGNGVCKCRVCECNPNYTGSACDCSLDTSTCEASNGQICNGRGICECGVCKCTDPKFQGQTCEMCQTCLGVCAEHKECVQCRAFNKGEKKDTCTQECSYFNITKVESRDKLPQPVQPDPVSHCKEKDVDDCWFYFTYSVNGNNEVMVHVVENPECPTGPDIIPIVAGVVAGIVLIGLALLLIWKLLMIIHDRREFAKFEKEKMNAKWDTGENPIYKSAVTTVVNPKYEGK
# T1 sequence (Q13797 30-1035): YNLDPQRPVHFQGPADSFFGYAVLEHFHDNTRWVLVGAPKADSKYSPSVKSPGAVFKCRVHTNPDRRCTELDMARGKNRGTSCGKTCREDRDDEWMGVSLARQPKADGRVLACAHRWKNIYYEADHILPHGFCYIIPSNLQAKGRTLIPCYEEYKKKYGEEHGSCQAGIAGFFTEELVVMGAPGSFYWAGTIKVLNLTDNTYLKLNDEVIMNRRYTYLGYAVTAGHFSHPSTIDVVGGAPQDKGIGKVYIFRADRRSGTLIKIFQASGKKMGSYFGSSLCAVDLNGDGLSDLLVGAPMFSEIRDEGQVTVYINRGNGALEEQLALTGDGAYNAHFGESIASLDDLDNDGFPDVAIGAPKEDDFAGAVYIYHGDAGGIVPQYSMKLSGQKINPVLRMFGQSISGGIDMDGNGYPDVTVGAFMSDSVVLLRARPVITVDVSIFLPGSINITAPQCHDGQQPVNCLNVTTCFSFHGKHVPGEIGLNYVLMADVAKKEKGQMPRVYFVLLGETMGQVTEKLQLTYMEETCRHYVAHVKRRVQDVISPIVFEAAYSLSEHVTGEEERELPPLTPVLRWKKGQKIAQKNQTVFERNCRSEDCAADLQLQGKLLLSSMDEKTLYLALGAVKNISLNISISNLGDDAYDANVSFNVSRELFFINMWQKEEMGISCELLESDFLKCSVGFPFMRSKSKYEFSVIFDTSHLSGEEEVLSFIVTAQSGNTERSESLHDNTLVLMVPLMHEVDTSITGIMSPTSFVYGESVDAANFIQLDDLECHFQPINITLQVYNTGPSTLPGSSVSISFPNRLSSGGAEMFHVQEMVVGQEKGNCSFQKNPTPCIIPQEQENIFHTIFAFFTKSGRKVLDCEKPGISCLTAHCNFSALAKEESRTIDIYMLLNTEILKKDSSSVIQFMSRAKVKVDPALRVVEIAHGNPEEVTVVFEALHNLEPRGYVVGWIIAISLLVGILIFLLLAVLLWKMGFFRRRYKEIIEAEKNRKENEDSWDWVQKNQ
# T1 sequence (P05556 21-798): as the sequence (P05556 21-798) above
# α4β1 integrin, sequence (P13612 34-1032): as the sequence (P13612 34-1032) above
# α4β1 integrin, sequence (P05556 21-798): as the sequence (P05556 21-798) above
# α9β1 integrin, sequence (Q13797 30-1035): as the sequence (Q13797 30-1035) above
# α9β1 integrin, sequence (P05556 21-798): as the sequence (P05556 21-798) above
molecule,measurement,setting,value
"O=C(O)[C@H](Cc1ccc(OC(=O)N2CCCC2)cc1)NC(=O)[C@@H]1CCCN1S(=O)(=O)c1ccccc1 [BOP, N-(Benzenesulfonyl)-L-prolyl-L-O-(1-pyrrolidinylcarbonyl)tyrosine]",off-rates for α9β1 compared to α4β1,α4β1 or α9β1 LN18 cells,significantly reduced off-rates
same,time of peak PB HSC,"[1]; mouse, in vivo",1 h
same,increase in the proportion of HSC (LSKSLAM cells) in the PB relative to AMD3100,[1]; p<0.05,significantly greater increase
same,increase in PB progenitors (LSK) and HSC (LSKSLAM),"[1]; single agent, single dose","rapid, significant and dose dependent increase"
same,return of PB progenitors and HSC to baseline post-administration,[1]; single dose,≤ 4 h
same,time of peak PB progenitors and HSC after a single dose,[1]; subcutaneous,60 min
same,inhibition of R-BC154 (IXb) binding to all CB cell populations,[2],complete inhibition
same,WBC counts,WBC in peripheral blood,7.0±0.8 ×10^6/ml
same,total PB lymphocytes decreased to baseline,WBC in peripheral blood; single dose,≤ 18 h
same,"inhibitory potency, α4β1 binding to VCAM-1 and Opn",α4β1 integrin,nanomolar inhibitory potencies
same,"inhibitory potency, α9β1 binding to VCAM-1 and Opn",α9β1 integrin,nanomolar inhibitory potencies
same,binding of BOP to endosteal LSK relative to their central counterparts in vivo,endosteal LSK,significantly greater binding of BOP
same,increase in PB human WBC or human CD34 stem and progenitors,[3],did not result in a significant increase
same,inhibition of R-BC154 (IXb) binding to α9β1,α9β1,> 95%
same,HPP-CFC content of mobilized PB relative to the saline control,LPP-CFC and HPP-CFC,greater
same,LPP-CFC content of mobilized PB relative to the saline control,LPP-CFC and HPP-CFC,greater
"Cc1ccccc1NC(=O)Nc1ccc(CC(=O)N(C)[C@@H](CC(C)C)C(=O)NCC[C@H](NC(=O)[C@@H]2CCCN2S(=O)(=O)c2cc(Cl)cc(Cl)c2)C(=O)O)cc1 [BIO5192, reference compound]",Kd,α4β1,< 0.01 nM
same,"increases in WBC counts, progenitors (LSK) and HSC (LSKSLAM) in the PB","[1]; Intravenous administration, alone",moderate increases
same,inhibition of R-BC154 (IXb) binding to CB HSC and progenitors,[2],partial inhibition
same,inhibition of R-BC154 (IXb) binding to CB lineage committed cells,[2],complete inhibition
same,inhibition of R-BC154 (IXb) binding to α9β1,α9β1,did not inhibit
"c1cc(CN2CCCNCCNCCCNCC2)ccc1CN1CCCNCCNCCCNCC1 [AMD3100, I,r-[I,4-Phenylenebis(methylene)]bis [1,4,8,11-tetraazacyclotetradecane]octohydrobromide dehydrate, reference compound]",increase in the proportion of progenitors (LSK cells) in the PB relative to BOP,"[1]; mouse, in vivo",comparable increases
same,WBC counts,WBC in peripheral blood,7.8±1.5 ×10^6/ml
same,increase in PB human WBC or human CD34 stem and progenitors,[3],did not result in a significant increase
same,HPP-CFC content of mobilized PB relative to the saline control,LPP-CFC and HPP-CFC,greater
same,LPP-CFC content of mobilized PB relative to the saline control,LPP-CFC and HPP-CFC,greater
B1,"progenitors mobilized, G-CSF alone versus single dose of BOP and AMD3100",[1]; 4-days of G-CSF,significantly greater number of progenitors
same,increase in PB human WBC or human CD34 stem and progenitors,[3],did not result in a significant increase
